{
  "source": "patent US20160279098A1",
  "about": "“NOVEL METHODS” (EUTHYMICS BIOSCIENCE, INC., priority 2013, published 2016)",
  "format_in_all_cases": "in vivo, human",
  "key": {"[1]": {"tested_on": "patients with major depressive disorder", "experiment": "Montgomery Asberg Depression Rating Scale (MADRS) in MDD trial", "text": "(§1) A multicenter, randomized, double blind, placebo- and paroxetine-controlled trial of amitifadine for major depressive disorder (MDD) non-responsive to an adequate trial of an antidepressant therapy in the current depressive episode. A sequential parallel comparison design (SPCD) is utilized. […] The study is 12 weeks in duration, with two 6-week phases. The primary outcome measure is change on the Montgomery Asberg Depression Rating Scale (MADRS). Secondary outcomes include Hamilton Rating Scale for Depression (HAM-D), Clinical Global Impression of Improvement (CGI-I), Sexual Functioning Inventory (SFI), Clinical Global Impression (Improvement and Severity versions), and the Massachusetts General Hospital (MGH) Cognitive and Physical Functioning Questionnaire (MGH-CPFQ). […]\nIn addition to standard inclusion criteria the trial requires: 1) diagnosis of MDD, based on the Structured Clinical Interview for DSM Disorders Clinical Trials version (SCID-CT), validated by remote independent raters using the SAFER criteria interview, 2) one and only one antidepressant therapy (ADT) failure in the current episode of MDD, treated with an adequate dose of one of an allowed standard antidepressant (paroxetine or an monoamine oxidase inhibitor (MAOI) not allowed) during the current episode for >6 weeks, with the same, adequate dose for >4 weeks, 3) HAM-D17≧18 at the end of screening phase, 4)<25% reduction in Quick Inventory of Depressive Symptoms Self-Rated (QIDS-SR) score between the screen and baseline visits. Inadequate response: defined as <50% reduction in depressive symptom severity, assessed by the MGH Antidepressant Treatment Response Questionnaire (ATRQ) administered by remote, independent raters (Targum, S. et al., CNS Neuroscience & Therapeutics, 2010, 16 (5), 322-325). […]\nThe primary efficacy assessment is the MADRS, administered at every study visit and clinicians complete it by using a structured interview guide developed by Massachusetts General Hospital (MGH). […] Vital signs are recorded at each visit; physical exam is performed at screen and week 12 (or early termination). […]"}, "[2]": {"tested_on": "patients with major depressive disorder", "experiment": "Sexual Functioning Inventory (SFI) in placebo- and paroxetine-controlled MDD trial", "set-up": "scale not given here", "conditions": "LOCF", "text": "(§2) A sequential parallel comparison design (SPCD) is utilized. […] The study is 12 weeks in duration, with two 6-week phases. The primary outcome measure is change on the Montgomery Asberg Depression Rating Scale (MADRS). Secondary outcomes include Hamilton Rating Scale for Depression (HAM-D), Clinical Global Impression of Improvement (CGI-I), Sexual Functioning Inventory (SFI), Clinical Global Impression (Improvement and Severity versions), and the Massachusetts General Hospital (MGH) Cognitive and Physical Functioning Questionnaire (MGH-CPFQ). Male and female patients, between the ages of 18-65, are eligible who had MDD, based on the Structured Clinical Interview for DSM Disorders (SCID) interview, and validated by remote raters, a history of non-response to an adequate trial of an antidepressant during the current episode of MDD (an adequate dose for >8 weeks), and a HAM-D-17 score of >18 at screening.\nIn addition to standard inclusion criteria the trial requires: 1) diagnosis of MDD, based on the Structured Clinical Interview for DSM Disorders Clinical Trials version (SCID-CT), validated by remote independent raters using the SAFER criteria interview, 2) one and only one antidepressant therapy (ADT) failure in the current episode of MDD, treated with an adequate dose of one of an allowed standard antidepressant (paroxetine or an monoamine oxidase inhibitor (MAOI) not allowed) during the current episode for >6 weeks, with the same, adequate dose for >4 weeks, 3) HAM-D17≧18 at the end of screening phase, 4)<25% reduction in Quick Inventory of Depressive Symptoms Self-Rated (QIDS-SR) score between the screen and baseline visits. Inadequate response: defined as <50% reduction in depressive symptom severity, assessed by the MGH Antidepressant Treatment Response Questionnaire (ATRQ) administered by remote, independent raters (Targum, S. et al., CNS Neuroscience & Therapeutics, 2010, 16 (5), 322-325). An adequate trial is defined as an ADT>6 weeks at least at the minimum dose specified in the MGH ATRQ.\nThe SCID-CT is administered by study clinicians at the screening visit to diagnose Axis I disorders. The remote, independent raters also administer the SAFER Criteria Inventory (SCI) during the screening phase to assess whether the MDD is a “valid” clinical entity.\nThe primary efficacy assessment is the MADRS, administered at every study visit and clinicians complete it by using a structured interview guide developed by Massachusetts General Hospital (MGH). The primary tolerability assessment is the change in the SFI, completed by the patient at every study visit. The MGH-CPFQ, a brief self-report inventory to assess rates of significant cognitive symptoms, sleepiness and fatigue, is filled out by patients at every visit. The Columbia-Suicide Severity Rating Scale (C-SSRS) (Posner K. et al., American Journal of Psychiatry, 2011, 168 (12)1266-77) is administered at every visit. Vital signs are recorded at each visit; physical exam is performed at screen and week 12 (or early termination). Laboratory tests are obtained at screen, baseline, and weeks 2, 4, 6, 8, 10, 12 (or early termination). Twelve-lead ECGs are obtained at screen, baseline, and weeks 3, 6, 9, 12 (or early termination). Consumptive habits (smoking, alcohol, and caffeinated beverages) are recorded at every visit. Adverse events and concomitant medications are collected at every visit."}, "[3]": {"tested_on": "patients with major depressive disorder", "experiment": "Clinical Global Impression of Improvement (CGI-I) in MDD trial", "conditions": "amitifadine 50 mg or 100 mg; paroxetine 40 mg at both 6 and 12 weeks", "text": "as §2, with “A multicenter, randomized, double blind, placebo- and paroxetine-controlled trial of amitifadine for major depressive disorder (MDD) non-responsive to an adequate trial of an antidepressant therapy in the current depressive episode. A sequential” for “A sequential”, “at screening. […]” for “at screening.”"}, "[4]": {"tested_on": "patients with major depressive disorder", "experiment": "Vital signs (heart rate, blood pressure) in MDD trial", "conditions": "amitifadine 50 mg and 100 mg", "text": "as §1\nThe primary efficacy assessment is the MADRS, administered at every study visit and clinicians complete it by using a structured interview guide developed by Massachusetts General Hospital (MGH). […] Vital signs are recorded at each visit; physical exam is performed at screen and week 12 (or early termination). […] Consumptive habits (smoking, alcohol, and caffeinated beverages) are recorded at every visit. […]"}, "[5]": {"tested_on": "patients with major depressive disorder", "experiment": "Sexual Functioning Inventory (SFI) in placebo- and paroxetine-controlled MDD trial", "set-up": "Mean Change from Baseline SFI, Item 3 / Mean Change from Baseline SFI, Item 4 / Mean Change from Baseline SFI, Item 5 / Mean Change from Baseline SFI Total / Mean Change from Baseline SFI, Item 1 / Mean Change from Baseline SFI, Item 2: scale not given here", "conditions": "amitifadine 100 mg"}, "[6]": {"conditions": "both genders, amitifadine 100 mg vs paroxetine 40 mg"}, "[7]": {"conditions": "female, amitifadine 100 mg, compare vs placebo"}, "[8]": {"conditions": "LOCF, female, compare vs placebo"}},
  "data": [
    {"smiles": "Clc1ccc([C@]23CNC[C@H]2C3)cc1Cl", "note": "[Amitifadine]", "values": [
      {"measurement": "difference between paroxetine and amitifadine 100 mg in improvement", "setting": "[1]; exploratory analyses", "result": "non-significant"},
      {"measurement": "MADRS change from baseline compared to placebo", "setting": "[1]; primary analysis, amitifadine 50 mg or 100 mg, paroxetine 40 mg", "result": "no significant difference"},
      {"measurement": "Mean Change from Baseline SFI Total", "setting": "[2]; [6]", "result": "−3.86"},
      {"measurement": "Mean Change from Baseline SFI, Item 1", "setting": "[2]; [6]", "result": "−1.02"},
      {"measurement": "Mean Change from Baseline SFI, Item 2", "setting": "[2]; [6]", "result": "−1.00"},
      {"measurement": "Mean Change from Baseline SFI, Item 3", "setting": "[2]; [6]", "result": "−0.80"},
      {"measurement": "Mean Change from Baseline SFI, Item 4", "setting": "[2]; [6]", "result": "−0.79"},
      {"measurement": "Mean Change from Baseline SFI, Item 5", "setting": "[2]; [6]", "result": "−1.00"},
      {"measurement": "Mean Change from Baseline SFI, Item 2", "setting": "[2]; [7]", "result": "−1.12"},
      {"measurement": "Mean Change from Baseline SFI, Item 5", "setting": "[2]; [7]", "result": "−1.09"},
      {"measurement": "CGI-Improvement compared to placebo", "setting": "[3]", "result": "no significant differences"},
      {"measurement": "changes in heart rate or blood pressure", "setting": "[4]", "result": "Neither dose is associated with significant changes"},
      {"measurement": "Mean Change from Baseline SFI Total", "setting": "[5]; [8]", "result": "−4.41"},
      {"measurement": "Mean Change from Baseline SFI, Item 1", "setting": "[5]; [8]", "result": "−1.16"},
      {"measurement": "Mean Change from Baseline SFI, Item 3", "setting": "[5]; [8]", "result": "−0.97"},
      {"measurement": "Mean Change from Baseline SFI Total", "setting": "[5]; LOCF, male, compare vs placebo", "result": "−3.12"},
      {"measurement": "Mean Change from Baseline SFI, Item 1", "setting": "[5]; LOCF, male, compare vs placebo", "result": "−0.83"},
      {"measurement": "Mean Change from Baseline SFI, Item 2", "setting": "[5]; LOCF, male, compare vs placebo", "result": "−0.83"},
      {"measurement": "Mean Change from Baseline SFI, Item 3", "setting": "[5]; LOCF, male, compare vs placebo", "result": "−0.58"},
      {"measurement": "Mean Change from Baseline SFI, Item 4", "setting": "[5]; LOCF, male, compare vs placebo", "result": "−0.79"},
      {"measurement": "Mean Change from Baseline SFI, Item 5", "setting": "[5]; LOCF, male, compare vs placebo", "result": "−0.88"},
      {"measurement": "individual items of the SFI (anorgasmia, arousal, overall satisfaction) versus paroxetine", "setting": "[5]; most individual items", "result": "significantly less impairing"},
      {"measurement": "SFI change from baseline compared with placebo in women", "setting": "[5]; post-hoc analyses by gender, women", "result": "significant improvement"}
    ]},
    {"smiles": "Fc1ccc([C@@H]2CCNC[C@H]2COc2ccc3c(c2)OCO3)cc1", "note": "[Paroxetine, reference compound]", "values": [
      {"measurement": "improvement compared to both placebo and amitifadine 50 mg", "setting": "[1]; exploratory analyses, paroxetine 40 mg", "result": "significantly better improvement"},
      {"measurement": "Mean Change from Baseline SFI Total", "setting": "[2]; [6]", "result": "−1.52"},
      {"measurement": "Mean Change from Baseline SFI, Item 1", "setting": "[2]; [6]", "result": "−0.57"},
      {"measurement": "Mean Change from Baseline SFI, Item 2", "setting": "[2]; [6]", "result": "−0.45"},
      {"measurement": "Mean Change from Baseline SFI, Item 3", "setting": "[2]; [6]", "result": "−0.27"},
      {"measurement": "Mean Change from Baseline SFI, Item 4", "setting": "[2]; [6]", "result": "−0.13"},
      {"measurement": "Mean Change from Baseline SFI, Item 5", "setting": "[2]; [6]", "result": "−0.23"},
      {"measurement": "CGI-Improvement compared to placebo", "setting": "[3]", "result": "significant difference"}
    ]}
  ]
}
